Assay results: the NIST ThermoML archive (doi:10.1021/acs.jced.6b00813)
± gives the expanded uncertainty stated by the source.

Legend:
[1] = wn = mass fraction of the nth substance listed; details: 101.3 kPa, Liquid, Pycnometric method
[2] = Crystal; Titration method

Work on `[Ca+2].[Cl-].[Cl-]` [calcium chloride] + O yielded a mass density ([1]; 273.15 K, w1 = 0.373) of 1427 ± 2 kg/m3.
`O=[PH2][O-].O=[PH2][O-].[Ca+2]` [calcium hypophosphite] + O showed a mass density ([1]; 268.75 K, w1 = 0.1397) of 1133 ± 2 kg/m3, a mass density ([1]; 270.15 K, w1 = 0.0909) of 1089 ± 2 kg/m3 and a mass density ([1]; 271.4 K, w1 = 0.0476) of 1047 ± 2 kg/m3. It also gave a mass density ([1]; 272.15 K, w1 = 0.0244) of 1024 ± 2 kg/m3, a mass density ([1]; 273.15 K, w1 = 0.1381) of 1132 ± 2 kg/m3 and a mass density ([1]; 283.15 K, w1 = 0.1362) of 1131 ± 2 kg/m3. The mass density ([1]; 293.15 K, w1 = 0.1341) was 1128 ± 2 kg/m3, the mass density ([1]; 303.15 K, w1 = 0.1322) was 1125 ± 2 kg/m3 and the mass density ([1]; 313.15 K, w1 = 0.1304) was 1121 ± 2 kg/m3. The mass density ([1]; 323.15 K, w1 = 0.1293) was 1117 ± 2 kg/m3, the mass density ([1]; 333.15 K, w1 = 0.1292) was 1114 ± 2 kg/m3 and the mass density ([1]; 343.15 K, w1 = 0.1292) was 1111 ± 3 kg/m3. For the same compound, the mass density ([1]; 353.15 K, w1 = 0.1295) was 1107 ± 3 kg/m3, the mass density ([1]; 363.15 K, w1 = 0.1297) was 1103 ± 2 kg/m3 and the mass density ([1]; 373.15 K, w1 = 0.1302) was 1103 ± 2 kg/m3. For the same compound, the mass density ([1]; 376.95 K, w1 = 0.1302) was 1103 ± 2 kg/m3.
Work on `O=[PH2][O-].[Na+]` [sodium phosphinate] + O yielded a mass density ([1]; 273.15 K, w1 = 0.4776) of 1381 ± 2 kg/m3.
`O` [water] gave a Normal melting temperature [2] of 0.00 ± 0.77 °C.
Work on `O` [water] + O=[PH2][O-].O=[PH2][O-].[Ca+2] yielded a mass density ([1]; 273.15 K, w2 = 0) of 999 ± 4 kg/m3.
